In this experiment the target is T1, Interleukin-1 receptor-associated kinase 4 (Homo sapiens, UniProt Q9NWZ3).
T1 sequence (Q9NWZ3 whole entry): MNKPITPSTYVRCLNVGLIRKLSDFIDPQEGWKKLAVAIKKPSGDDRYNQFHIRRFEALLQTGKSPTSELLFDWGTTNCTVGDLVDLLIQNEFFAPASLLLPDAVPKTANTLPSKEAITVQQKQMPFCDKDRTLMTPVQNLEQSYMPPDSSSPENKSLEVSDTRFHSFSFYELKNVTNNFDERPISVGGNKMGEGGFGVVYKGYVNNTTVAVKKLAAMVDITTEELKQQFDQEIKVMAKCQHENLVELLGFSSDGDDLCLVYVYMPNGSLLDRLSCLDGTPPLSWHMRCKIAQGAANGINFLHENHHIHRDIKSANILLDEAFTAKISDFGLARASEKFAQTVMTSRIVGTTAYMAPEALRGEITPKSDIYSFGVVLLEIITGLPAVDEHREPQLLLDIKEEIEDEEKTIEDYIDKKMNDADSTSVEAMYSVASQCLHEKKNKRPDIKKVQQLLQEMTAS
Kind of experiment: IRAK4 Kinase Assay.

pIC50: −log10 of the molar value.

In general, pIC50 refers to the IC50 on a negative log10 scale, so that one unit is a factor of ten. A high value points to a small IC50.

Protocol: The kinase activity of IRAK4 is determined by its ability to catalyze the phosphorylation of a fluorescent polypeptide substrate. The extent of phosphorylation is measured using the IMAP technology (Molecular Devices) where the phosphorylated fluorescent substrate binds to the large M(III)-based nanoparticles which reduces the rotational speed of the substrate and thus increases its fluorescent polarization (FP).20 μL reaction mixture contains 10 mM TriHCl, pH 7.2, 0.5 nM GST tagged IRAK4 (SignalChem), 100 nM fluorescent peptide substrate (RP7030, Molecular Devices), 100 μM ATP, 1 mM DDT, 1 mM MgCl2, and 0.01% Tween 20. The reaction is initiated by the addition of ATP. After incubation for 30 minutes at 25° C., 60 μL of Progressive IMAP Reagent (Molecular Devices) is added to stop the reaction. Change in RP7030's FP is determined by a FP reader (Analyst HT, LJL BioSystems).

Regarding `NC(=O)c1c(NC(=O)c2cnn3ccc(N4CCNCC4)nc23)cnn1-c1ccncc1` [US10155765, Example 35], the pIC50 is 6.51.

`CSc1ncc2ccc(C(=O)Nc3cn(C)nc3C(N)=O)n2n1` [US10155765, Example 57] gave a pIC50 of 6.43.
